Reference: patent publication US4794113A, “Imidazolyl phenoxy compounds and method of use” (Yamanouchi Pharmaceutical Co., Ltd., priority 1983, dated 1988)

Tests used:
[1] = test system: Hyperlipedemic rat; assay: Lipid Reducing Activity (cholesterol/bile acid fed hyperlipidemic rats, serum lipids); format: in vivo, male Sprague-Dawley rats; settings: 100 mg/kg/day p.o., 4 days; for HDL-C/LDL-C (cont. = 1): relative to control; for HDL-Chol** (cont. = 1): relative to control = 1
Protocol: Feed containing 1.5% cholesterol and 0.5% bile acid was given to male Sprague-Dawley rats aging 4 weeks old after birth for 7 days. A suspension of the compound of the present invention in a 0.5% aqueous methyl cellulose solution was administered daily via oral catheter for 4 days. After fastening overnight, blood was collected under ether anesthesia to determine the quantities of the total HDL and cholesterol in serum. The measurements of cholesterol and HDL were performed in accordance with the method described in Schettler, G. & Hussel; Arbetsmed. Sozialmed. Praventived., 10, 25 (1975) and the method described in T. T. Ishikawa et al.; Lipids, 11, 628 (1976), respectively.

[2] = test system: platelet aggregation induced by arachidonic acid; assay: Platelet Aggregation Prevention Activity (arachidonic acid induced, platelet rich plasma); format: cell-based, Nippon white rabbit; settings: compound 100 μM; arachidonic acid final concentration 0.2 mM; rabbit PRP
Protocol: Platelet rich plasma (PRP) and platelet poor plasma (PPP) were prepared from venous blood of Nippon white rabbit. The platelet aggregation activity was measured in accordance with the method described in Born, G. V. R.; Nature, 194, 927 (1962) and the activity of preventing platelet agglutination of the compound against platelet aggregation induced by arachidonic acid (final concentration, 0.2 mM) was determined with an Aggrigometer (made by Payton Co.).

Compound	Reduction Rate of T* and Chol** (*triglyceride, **cholesterol) [1]	HDL-C/LDL-C (cont. = 1) [1]	HDL-Chol** (cont. = 1) [1]	Platelet Aggregation inhibition (%) A.A. [2]
CCOC(=O)C(C)(C)CCCCCOc1ccc(-c2csc(-c3cccnc3)n2)cc1 [Example 2, ethyl 2,2-dimethyl-7-[p-[2-(3-pyridyl)-4-thiazolyl]phenoxy]heptanoate]	59%	22	7.62	16%
CCOC(=O)C(C)(C)CCCCOc1ccc(OCCCCCn2ccnc2)cc1 [Example 30, ethyl 6-[p-[5-(1-imidazolyl)pentyloxy]phenoxy]-2,2-dimethylhexanoate]	48%	5.00	1.78	57%
CCOC(=O)C(C)(C)CCCCCOc1ccc(NC(=O)CCCCn2ccnc2)cc1 [Example 39]	23%	4.1	3.11	100%
CCOC(=O)C(C)(C)CCCCOc1ccc(NC(=O)CCCn2ccnc2)cc1 [Example 35, Ethyl-6-[p-[4-(1-imidazolyl)-butyramido]phenoxy]-2,2-dimethylhexanoate]	52%	5.4	2.49	7%
CCOC(=O)C(C)(C)CCCOc1ccc(-c2csc(C)n2)cc1 [Example 5, ethyl 5-[p-(2-methyl-4-thiazolyl)phenoxy]-2,2-dimethylpentanoate]	69%	8.00	1.54	50%
